Data on 1 compound can be found in patent US9714260B2, “Asymmetrical Si rhodamine and rhodol synthesis” (THE UNIVERSITY OF TOKYO, priority 2013, dated 2017).

Series [1] is described as follows: Optical characteristics of Compound 10 and predicted compound after reaction with active oxygen. Type of series: physicochemical. As to conditions: 1 μM in PBS (pH 7.4), 0.1% DMF. The procedure: The absorbance and fluorescence spectra (left side of FIG. 19) of 1 μM of compound 10 in PBS (pH 7.4) containing 0.1% DMF as a cosolvent, the absorbance and fluorescence spectra (right side of FIG. 19) of the compound predicted to be generated following a reaction of compound 10 and 1 μM active oxygen, and the optical characteristics of each compound were measured (Table 9).

A short description of series [2]: Reactivity and selectivity of Compound 10 toward active-oxygen species. The method, then:
Next, an analysis was carried out using the HPLC of a reaction induced by an active-oxygen-species. […] A sample was subjected to HPLC linear gradient elution (eluate: A/B=60/40—10 minutes—0/100; flow rate=1.0 mL/minute). Next, the selectivity of active-oxygen species of compound 10 was examined. The conditions of various active-oxygen species were as follows. H2O2: […] ONOO^−: […] O2^−: […] Hydroxy radical: H2O2 (final 1 mM) and FeClO4 (final 100 μM) were added.

A further series has as its system HL60 cells. Kind of series: Cell-imaging experiment using HL60 cells. Type of series: cell-based. As to conditions: 1 μM probe, 1 mM H2O2 stimulation, 45 minutes. The method, then:
HL60 cells were cultured. […] The fluorescence image was observed thereafter.

Consider `CC/[N+](=C1\C=CC2=C(c3ccccc3C)c3cc4c(cc3[Si](C)(C)C2=C1)N(C)CC4)c1ccc(O)cc1` [Compound 10, 2MeIndo-N-ethyl-phenol-SiR], for which the Absmax in series [1] is 670 nm. The “selectivity of active-oxygen species” value in series [2] (H2O2, −OCl, ONOO−, O2−, hydroxy radical) was “reacted selectively with ^−OCl and ONOO^−”. Further, the “reaction with −OCl (HPLC, ESI-MS analysis)” value in series [2] (−OCl) is “produce the predicted reactant”. Also, the “increase in fluorescence after reaction with active-oxygen species” value in series [2] (−OCl and ONOO−) was determined as 100 times. For the same compound, the “increase in fluorescence inside cells relative to no stimulation” value with HL60 cells is recorded as “about four”.
